Assay results as given in publication PMC10227015, “From a drug repositioning to a structure-based drug design approach to tackle acute lymphoblastic leukemia” (Nature Communications, 2023).
Where two headings read alike, the source gives them in different places.

Tests used:
dCK-C3S-S74E [1] = test: Enzymatic assay (PK/LDH coupled), dC phosphorylation by dCK in the presence of UTP; type: biochemical, human; conditions: presence of UTP
Description: (§1) For enzymatic assays, cells were re-suspended in 20 mM TRIS, pH 8 500 mM NaCl, 0.1% BRIJ-35 and 5% glycerol buffer and one EDTA free anti-protease tablet was added (Roche). After sonication and centrifugation (30,000 × g), the supernatant was loaded on a 5 ml HisTrap FF column (GE healthcare) pre-equilibrated with 20 mM TRIS, pH 8, 500 mM NaCl, 0.01% BRIJ-35 and 5% glycerol buffer. The protein was then eluted by the same buffer containing 250 mM imidazole after a wash containing 25 mM imidazole. The eluted fraction was applied on a HiPrep 26/10 desalting column (GE healthcare) pre-equilibrated with 20 mM TRIS, pH 8, 500 mM NaCl, 5% glycerol and 0.01% BRIJ-35 buffer. Finally, protein in a 20% glycerol buffer was flash frozen in liquid nitrogen and stored at −80 °C.
Kinetic analyses were performed using a spectrophotometric continuous enzymatic-coupled assay using pyruvate kinase (PK) and lactate dehydrogenase (LDH). […] UTP is the physiological dCK-phosphate donor[46] and it was used to determine activation versus inhibition behavior. ATP was used to calculate IC50 values, as it allows the analysis of a dose response curve. The PK/LDH coupled assay is based on the conversion of phosphoenolpyruvate (PEP) and UDP/ADP to pyruvate and UTP/ATP by PK and the subsequent conversion of pyruvate to lactate by LDH. The latter step requires NADH, which is oxidized to NAD^+. NADH is fluorescent (excitation at 337 nm and emission at 460 nm), but not NAD^+. Thus, the measurement of fluorescent decrease at 460 nm is a measure of kinase activity. dCK experiments were performed in a buffer containing 50 mM HEPES, pH 7.5, 5 mM MgCl2, 1 mM DTT, and 100 mM KCl. Buffer was supplemented with PK (0.01 U/µl), LDH (0.02 U/µl), PEP (1 mM), NADH (300 µM) and compounds at varying concentrations. For UTP assays, protein concentration was 2 μM, substrate 200 µM (dC), and UTP 1 mM. For ATP assays, protein concentration was 100 nM (and 50 nM when indicated), substrate 100 µM (dC), and ATP 1 mM. All measurements were performed on a microplate reader Pherastar FS (BMG Labtech). All assays were performed in triplicate and each experiment was performed at least twice. The data are presented as mean ± SD. The results were plotted as kinetics and the velocity was determined for each condition as the slope of the linear range of the curve. For each compound concentration, the velocity of the reaction (according to V = d[P]/dt) was normalized with respect to the drug free control and velocity ratios were compared. IC50 values corresponding to enzymatic inhibition in ATP were calculated by nonlinear regression curves using GraphPad Prism software 9.4.0.

dCK-C3S-S74E [2] = test: Enzymatic assay (PK/LDH coupled), dC phosphorylation by dCK in the presence of ATP; type: biochemical, human; conditions: presence of ATP, [dCK] = 100 nM; read-out: ENZYMATIC ASSAY IC50
Description: as §1
Kinetic analyses were performed using a spectrophotometric continuous enzymatic-coupled assay using pyruvate kinase (PK) and lactate dehydrogenase (LDH). Analysis of the effect of compounds on dCK-C3S-S74E activity was performed using dC as substrate and UTP/ATP as phosphate donors. UTP is the physiological dCK-phosphate donor[46] and it was used to determine activation versus inhibition behavior. ATP was used to calculate IC50 values, as it allows the analysis of a dose response curve. The PK/LDH coupled assay is based on the conversion of phosphoenolpyruvate (PEP) and UDP/ADP to pyruvate and UTP/ATP by PK and the subsequent conversion of pyruvate to lactate by LDH. The latter step requires NADH, which is oxidized to NAD^+. NADH is fluorescent (excitation at 337 nm and emission at 460 nm), but not NAD^+. Thus, the measurement of fluorescent decrease at 460 nm is a measure of kinase activity. dCK experiments were performed in a buffer containing 50 mM HEPES, pH 7.5, 5 mM MgCl2, 1 mM DTT, and 100 mM KCl. Buffer was supplemented with PK (0.01 U/µl), LDH (0.02 U/µl), PEP (1 mM), NADH (300 µM) and compounds at varying concentrations. For UTP assays, protein concentration was 2 μM, substrate 200 µM (dC), and UTP 1 mM. For ATP assays, protein concentration was 100 nM (and 50 nM when indicated), substrate 100 µM (dC), and ATP 1 mM. All measurements were performed on a microplate reader Pherastar FS (BMG Labtech). All assays were performed in triplicate and each experiment was performed at least twice. The data are presented as mean ± SD. The results were plotted as kinetics and the velocity was determined for each condition as the slope of the linear range of the curve. For each compound concentration, the velocity of the reaction (according to V = d[P]/dt) was normalized with respect to the drug free control and velocity ratios were compared. IC50 values corresponding to enzymatic inhibition in ATP were calculated by nonlinear regression curves using GraphPad Prism software 9.4.0.

CCRF-CEM cell line = test: dCK cellular assay: CCRF-CEM proliferation in the presence of dT and dC; type: cell-based, human
Description: The dCK cellular assay was set up to assess the ability to inhibit dCK activity in a cellular model. The model was developed with a T-cell acute lymphoblastic leukemia cell line (CCRF-CEM), because of its high dependence on the SP, thus on dCK activity. Cellular assays were performed to assess the inhibition of cell proliferation under two conditions: (i) in the presence of the compound alone to determine the nonspecific effect on cells, independent of dCK (nonspecific toxicity) and (ii) in the presence of an inhibitor of the DNP to determine the ability of compounds to inhibit dCK and decrease tumor proliferation (activity on dCK). The inhibitor of the DNP chosen for the experiments was thymidine (dT), a physiological inhibitor of ribonucleotide reductase which arrests cell proliferation in phase S. The dTTP produced via thymidine kinase from dT acts as a RNR inhibitor by an allosteric regulation of the R1 subunit. The addition of the nucleoside deoxycytidine (dC) in the medium allows the rescue of cell proliferation by passing only through the salvage pathway, mediated by dCK. dC needs to be added exogenously to mimic physiological concentrations because it is not present in the cell culture medium, on the contrary to mouse model, in which it is naturally present in the serum. Therefore, cell proliferation under these conditions (+dT +dC) is dCK dependent and it is possible to determine the IC50 of dCK inhibitors on the inhibition of cell proliferation. Results are expressed as % cell proliferation relative to the control with DMSO.
The amount of reduced dye formed by metabolically active cells was quantified by its fluorescence measured at 560 nm (excitation) and 590 nm (emission) in a microplate reader (CLARIOstar, BMG Labtech). A blank well without cells was used as a background control. Each experiment was performed at least three times (with technical triplicates) and data are presented as the mean ± SD.

dCK-C3S-S74E [3] = test: Thermal shift assay (TSA); conditions: for THERMAL SHIFT ASSAY +Tm (°): mean ± SD; for ΔTm (º) (TSA): Figure 2a, mean
Description: BL21 pRIL Escherichia coli cells were transformed with dCK-plasmids (dCK-C4S-S74E (for crystallization assays) and dCK-C3S-S74E (for TSA, enzymatic and ITC assays)). […] Protein dCK-C3S-S74E used for other assays contained only three mutated cysteines. The S74E mutation mimics the phosphorylated state of this serine, which favors the open conformation of the enzyme, making it competent for nucleoside binding[45] to evaluate the binding affinity with compounds.
For binding assays (TSA, ITC and crystallography) cells were re-suspended in 50 mM TRIS, pH 8, 500 mM NaCl, 30 mM imidazole and 10% glycerol buffer and one EDTA free anti-protease tablet was added (Roche). After sonication and centrifugation (30,000 × g), the supernatant was loaded on a 5 ml HisTrap FF column (GE healthcare) pre-equilibrated with resuspension buffer. Protein was then eluted by resuspension buffer containing 500 mM imidazole. Protein eluted fractions were mixed and concentrated. Protein was further purified by size exclusion chromatography (superdex 200 16/600, GE healthcare) in 20 mM HEPES, pH 7.5, and 200 mM NaCl before concentration to 30 mg/ml and storage at −80 °C.
Thermal shift assay (TSA) experiments were performed in 384-well PCR white plates in the assay buffer containing 20 mM HEPES, pH 7.5 and 200 mM NaCl. […] Plates were centrifuged at 200 × g for 2 min at 4 °C. […] Raw fluorescence data were treated, and the melting temperatures (Tm) were calculated using CFX Manager 3.1 software (Bio-Rad). ΔTm represents the difference in Tm between the protein in the presence of compound and the protein alone (both at 2% DMSO). Each experiment was performed at least twice (with technical triplicates) and data are presented as the mean ± SD.

[4] = Homo sapiens, read-out: dCK CELLULAR ASSAY IC50 (nM), CCRF-CEM, 200 µM dT and 1 µM dC, read-out: dCK […] ASSAY IC50

Chain of dCK-C3S-S74E (P27707 whole entry S74E, form open): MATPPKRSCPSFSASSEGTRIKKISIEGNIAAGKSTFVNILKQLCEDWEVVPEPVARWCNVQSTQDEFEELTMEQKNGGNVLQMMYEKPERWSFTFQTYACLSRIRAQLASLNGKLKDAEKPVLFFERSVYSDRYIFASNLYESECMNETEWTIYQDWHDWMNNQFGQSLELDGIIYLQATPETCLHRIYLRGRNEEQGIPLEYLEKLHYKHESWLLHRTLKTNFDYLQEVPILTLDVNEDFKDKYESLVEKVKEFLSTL

SMILES | ENZYMATIC ASSAY (Activation/Inhibition) (dCK-C3S-S74E [1]) | IC50 (dCK-C3S-S74E [2]) [nM] | IC50 (CCRF-CEM cell line; [4]) [nM] | THERMAL SHIFT ASSAY +Tm (°) (dCK-C3S-S74E [3]) | IC50 (CCRF-CEM cell line; Homo sapiens, Figure 2a, CCRF-CEM cell line, mean, read-out: IC50 (nM) (Cell Prolif)) | ΔTm (º) (TSA) (dCK-C3S-S74E [3]) | IC50 (CCRF-CEM cell line; Figure 2a, CCRF-CEM cell line, mean, read-out: IC50 (nM) (Cell Prolif))
CCCN(c1nc(-c2nccc(N)n2)cs1)c1cc(NC(=O)c2ccc(CN3CCN(C)CC3)cc2)ccc1C [OR0105] | I | 2140 ± 49 | 1620 ± 254 | 14.5 ± 0.2 |  |  | 
Cc1ccc(NC(=O)c2ccc(CCN3CCN(C)CC3)cc2)cc1Nc1nc(-c2nccc(N)n2)cs1 [OR0146] | A/I | 3460 ± 349 | 14600 ± 1190 | 14.8 ± 0.4 |  |  | 
Cc1ccc(C#Cc2ccc(CN3CCN(C)CC3)cc2)cc1Nc1nc(-c2nccc(N)n2)cs1 [OR0153] | A/I | 2040 ± 684 | 2180 ± 388 | 16.9 ± 0.4 |  |  | 
Cc1ccc(NC(=O)c2ccc(CN(C)C)cc2)cc1Nc1nc(-c2nccc(N)n2)cs1 [OR0155] | A/I | 7780 ± 2330 | 13800 ± 394 | 10.9 ± 0.4 |  |  | 
Cc1ccc(NC(=O)c2ccc(CN3CC4(CN(C)C4)C3)cc2)cc1Nc1nc(-c2nccc(N)n2)cs1 [OR0156] | A/I | 6380 ± 2080 | > 40000 | 12.6 ± 0.1 |  |  | 
Cc1ccc(OCc2ccc(CN3CCN(C)CC3)cc2)cc1Nc1nc(-c2nccc(N)n2)cs1 [OR0232] | A/I | 1940 ± 529 | 3460 ± 638 | 15.2 ± 0.0 |  |  | 
Cc1ccc(C#Cc2ccc(CN(C)C)cc2)cc1Nc1nc(-c2nccc(N)n2)cs1 [OR0237] | A/I | 2140 ± 387 | 3340 ± 1450 | 15.3 ± 0.5 |  |  | 
Cc1ccc(NC(=O)c2ccc(CN3CCN(C)CC3)cc2)cc1Nc1nc(-c2ncc(F)c(N)n2)cs1 [OR0239] | A/I | 3350 ± 1070 | 14800 ± 1580 | 14.3 ± 0.4 |  |  | 
Cc1ccc(NC(=O)c2ccc(CN3CCN(C)CC3)s2)cc1Nc1nc(-c2nccc(N)n2)cs1 [OR0241] | A/I | 3770 ± 2190 | 14200 ± 1160 | 13.5 ± 0.0 |  |  | 
CN1CCN(Cc2ccc(C(=O)Nc3ccc4c(c3)N(c3nc(-c5nccc(N)n5)cs3)CCCC4)cc2)CC1 [OR0289] | A/I | 3400 ± 564 | 3920 ± 461 | 15.9 ± 0.5 |  |  | 
Cc1ccc(-c2ccc(O)cc2)cc1Nc1nc(-c2nccc(N)n2)cs1 [OR0320] | A/I | 1760 ± 385 | 6770 ± 2810 | 15.0 ± 0.2 |  |  | 
COc1cc(-c2ccc(C)c(Nc3nc(-c4nccc(N)n4)cs3)c2)ccc1O [OR0321] | A/I | 2270 ± 293 | 8290 ± 2710 | 13.3 ± 0.2 |  |  | 
Cc1ccc(-c2ccc(CCCN3CCN(C)CC3)cc2)cc1Nc1nc(-c2nccc(N)n2)cs1 [OR0331] | A/I | 401 ± 28 | 918 ± 107 | 19.4 ± 0.4 |  |  | 
CCCN(c1nc(-c2nccc(N)n2)cs1)c1cc(-c2ccc(OCCN3CCN(C)CC3)cc2)ccc1C [OR0596] | I | 286 ± 145 | 307 ± 50 | 18.9 ± 0.1 |  |  | 
CCCN(c1nc(-c2nccc(N)n2)cs1)c1cc(-c2ccc(CCCN3CCN(C)CC3)cc2)ccc1C [OR0598] | I | 301 ± 78 | 776 ± 206 | 19.1 ± 0.2 |  |  | 
CCCN(c1nc(-c2nccc(N)n2)cs1)c1cc(-c2ccc(CCN3CCN(C)CC3)nc2)ccc1C [OR0599] | I | 211 ± 52 | 136 ± 53 | 17.1 ± 0.2 |  |  | 
CCCN(c1nc(-c2nc(N)cc(N)n2)cs1)c1cc(-c2cnc(N)nc2)ccc1C [OR0613] | I |  |  | 14.5 ± 0.7 | 703 | 14.5 º | 
CCCN(c1nc(-c2nc(N)cc(N)n2)cs1)c1cc(-c2cnc(S(=O)(=O)N3CCN(C)CC3)cc2C)ccc1C [OR0652] |  |  |  |  |  | 19.17 º | 7.3
